According to article doi:10.1101/2025.07.08.663703, “Recruitment of Mre11 to recombination sites during meiosis” (bioRxiv, 2025):
Ends that are not written are not given here.

Assays:
[1] = test system: MMS-induced Mre11myc foci; test: Immunofluorescence of MMS-induced Mre11myc foci in vegetative yeast, 1,6-hexanediol treatment; assay type: cell-based, Saccharomyces cerevisiae SK1; details: 5% 1,6-hexanediol, 4–5 minutes, spheroplasts, vegetative cells
Description: Following standard protocols, strains were patched on YPG plates, mated and streaked on YPD plates, and selected diploid colonies grown in liquid YPD at 30°C, 250 rpm, overnight. For meiotic synchronization, diploid cultures grown overnight in YPD were transferred to YPA (1% yeast extract, 2% peptone, 1% potassium acetate) at OD600 0.2 and grown for 12–14 hours at 30°C, 250 rpm. […]
Slides were blocked with 90% FBS, 1× PBS for 1 hour at room temperature in a humid chamber and then incubated with primary antibody (mouse mAb anti-myc, 1:200 (2276S, Cell Signaling Technology), rabbit anti-phospho H2A-S129, 1:200 (ab15083, abcam)) diluted in 3% BSA, 1× PBS in a humid chamber for 2 hours at 37°C or overnight at 4°C. Slides were washed three times with 1× PBS in a Coplin jar, were incubated with secondary antibody (goat anti-mouse IgG Alexa Fluor™ Plus 488, 1:200 (A32723, Invitrogen), donkey anti-rabbit IgG Alexa Fluor™ 546, 1:200 (A10040, Invitrogen) diluted in 3% BSA, 1× PBS in a humid chamber at 37°C for 1 hour. Slides were washed in the dark three times for 5 mins with 1× PBS, mounted with Vectashield containing DAPI (Vector Labs). Images were captured on a Zeiss Axio Observer with a 100×/1.4 NA oil immersion objective and were analyzed in ImageJ.

[2] = test system: Mer2; test: Co-expression NiNTA pulldown of MBP-Mre11-C49 (prey) with HisSUMO-Mer2 (bait); assay type: binding, S. cerevisiae; details: co-expression in E. coli, anti-MBP elution/input signal normalized to wild type, at least seven independent samples
Excerpt: The vector for expression of ^MBPMre11-C49 and ^HisSUMOMer2 (pCCB1040) was based on a pET-Duet1 vector with the sequence coding for ^MBPMre11-C49 cloned within the first position (SacI site) and the sequence coding for ^HisSUMOMer2 cloned at the second position (XhoI site). The EQEK mutations and LLK mutations were introduced by PCR amplification of pCCB1040 with primers cb1561 and cb1562, and pp84 and pp85, followed by phosphorylation and self-ligation to yield plasmids pry59 and pry61, respectively.
Wild-type and mutant MBP-tagged Mre11-C49 and HisSUMO-tagged Mer2 were co-expressed in 50 mL of E. coli BL21 cultures and purified by affinity chromatography on Ni-NTA resin following a procedure similar to that described above. Briefly, cells were lysed by sonication and centrifuged at maximum speed for 30 mins at 4°C on a table-top centrifuge. A small fraction of the supernatant was collected as ‘Input’ and the remainder was incubated with 120 μL Ni-NTA resin, pre-equilibrated with wash buffer (25 mM HEPES pH 7.5, 20 mM imidazole, 0.1 mM DTT, 0.1 mM PMSF, 10% glycerol), for 1 hour on a rotating wheel at 4°C. The resin was washed twice with 2 ml in batch and five times with 2 ml on column before eluting with 250 μL of 500 mM imidazole in wash buffer. […]

[3] = test system: Mer2; test: In vitro colocalization of Mre11 with Mer2 condensates; assay type: binding, S. cerevisiae
Description: Proteins were diluted to a 10× stock of their appropriate working concentrations in their respective storage buffers. […] Unless specified otherwise, all reactions contained 400 nM ^Alexa488Mre11 or 100 nM ^eGFPMRX. A typical 20 μL binding reaction contained 2 μL protein of 10× stock of indicated concentration, 10 μL of 2× reaction buffer, and 150 ng of supercoiled pUC19 (5.7 nM). Typical reactions were assembled at 30°C for 30 mins with gentle mixing every 5 mins, unless mentioned otherwise. 5 μL was dropped onto a microscope slide and covered with a coverslip. All images were captured on a Zeiss Axio Observer with a 100×/1.4 NA oil immersion objective except for images provided in Figure 4G which were captured on Leica Stellaris DMI 8 confocal microscope with a 63x/1.2 NA water immersion objective. Images were analyzed with ImageJ using a custom-made script. In brief, 129.24 × 129.24-μm (2048 × 2048-pixel) images were thresholded to mean intensity of the background plus three times the standard deviation of the background. Masked foci were counted and the intensity inside the focus mask was integrated. Data points represent averages of at least 8–10 images per sample. Data were analyzed using Graphpad Prism 10.4.0.

[4] = test system: mre11-ΔC49 and mre11-ΔIDR yeast strains; test: MMS and CPT sensitivity assay (spotting of serial dilutions); assay type: cell-based, Saccharomyces cerevisiae SK1; details: ten-fold serial dilutions on YPD plates, two days at 30°C; for resistance of mre11-ΔC49 mutant: mre11-ΔC49 strain; for resistance of mre11-ΔIDR mutants: mre11-ΔIDR strain
Description: Following standard protocols, strains were patched on YPG plates, mated and streaked on YPD plates, and selected diploid colonies grown in liquid YPD at 30°C, 250 rpm, overnight. For meiotic synchronization, diploid cultures grown overnight in YPD were transferred to YPA (1% yeast extract, 2% peptone, 1% potassium acetate) at OD600 0.2 and grown for 12–14 hours at 30°C, 250 rpm. Once the cultures reached OD600 between 1.2–1.6, cells were washed once with prewarmed sterile water and immediately transferred to sporulation medium supplemented with amino acids (320 μL amino acid complementation media for 100 mL of sporulation media (SPM)) and were kept shaking at 30°C, 250 rpm during the entire meiotic time-course. For MMS and CPT (Sigma) sensitivity assays, serial dilutions of overnight cultures were spotted on freshly prepared YPD-MMS or YPD-CPT plates containing indicated percentage of MMS or CPT, respectively. Plates were grown for two days at 30°C. For immunofluorescence of vegetatively growing cells, overnight cultures were refreshed by diluting to OD600 0.2 and grown for 3–4 hours to reach OD600 1.2–1.4 before subjecting to MMS or MMS followed by 5% 1,6-hexanediol treatment. For 5% 1,6-hexanediol treatment, cells were first converted to spheroplasts and then treated with 5% 1,6-hexanediol for 4–5 minutes. Spheroplasts were then immediately washed, lysed, and fixed using protocol described below.

[5] = target: T1, Smt3 (Saccharomyces cerevisiae, UniProt Q12306); test: NMR chemical shift perturbation of U-[13C,15N] Smt3 by SIM3 peptides; assay type: binding, yeast (S. cerevisiae); details: [1H,15N] HSQC, 1.2 molar equivalents of peptide, 0.3 mM U-[13C,15N] Smt3, 20 mM sodium phosphate, 20 mM NaCl, pH 6.5, 10% D2O, 298 K, 800 MHz
T1 construct: 6xHis (C); made in house; host or cells: E. coli BL21 (DE3)pLysS
T1 sequence (Q12306 whole entry): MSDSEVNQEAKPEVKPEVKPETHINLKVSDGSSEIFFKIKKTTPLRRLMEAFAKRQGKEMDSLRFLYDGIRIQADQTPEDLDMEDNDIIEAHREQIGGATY
Description: For the production of the doubly labeled U-[^13C, ^15N] […] The purification protocol remained the same as described above.
The samples contained 0.3–0.6 mM of U-[^13C,^15N] […] All NMR spectra were acquired at 298 K on a Bruker Avance III HD 800 MHz spectrometer, equipped with a TCI cryoprobe. The NMR data were processed in TopSpin 3.6 (Bruker) or NMRPipe[70] and analyzed in CCPNMR[71]. Assignments of Smt3 backbone amide resonances were taken from literature[72] and verified by 3D HNCACB, HN(CO)CACB, and ^15N-edited NOESY-HSQC spectra. […] The assigned ^1H, ^13C and ^15N chemical shifts of the free and bound Smt3 have been deposited in the Biological Magnetic Resonance Bank (http://www.bmrb.wisc.edu/) under the accession number 53209.
The NMR binding experiments were performed by an incremental addition of wild-type or mutant SIM peptides (1.2 mM stocks in the working buffer) to 0.3 mM samples of U-[^13C,^15N] Smt3, with the spectral changes monitored in [^1H,^15N] HSQC spectra acquired at each increment. The average chemical shift perturbations (Δδavg) were calculated as Δδavg = (ΔδX^2/50 + ΔδH^2/2)^0.5, where ΔδX and ΔδH are the chemical shift changes of the backbone amide nitrogens or methyl carbons (ΔδX) and protons (ΔδH) of Smt3 residues upon addition of 1.2 molar equivalents of SIM peptides, and n = 50 or 9 for the backbone amide and methyl groups, respectively.

| Compound | interaction of Mre11-C49 and Mer2 in pulldown (anti-MBP immunoblot) [2] | resistance of mre11-ΔC49 mutant [4] | resistance of mre11-ΔIDR mutants [4] | further results |
| --- | --- | --- | --- | --- |
| OCCCCCCO [1,6-hexanediol] |  |  |  | effect on MMS-induced Mre11 foci [1]: readily dissolved MMS-induced foci |
| Mre11-LLK: Mre11-C49 with L683, L686, and K690 mutated to alanine (SYGLLNGRKTKTKTRPAASTKTASRRGKGRASRTPKTDIAGSALAKARK; also: MBP fusion, end not given here) | strongly decreased the interaction between the two partners |  |  |  |
| Mre11-C49: Mre11 C-terminal residues (644–692) (SYGLLNGRKTKTKTRPAASTKTASRRGKGRASRTPKTDILGSLLAKKRK; also: MBP fusion, end not given here) | directly binds Mer2 |  |  | localization of Mre11-C49 around Mer2 condensates ([3]; 800 nM mScarletMre11-C49 and 200 nM eGFPMer2, 30 min): forms a halo-like structure around Mer2 condensates; independent condensate formation of Mre11-C49 ([3]; 800 nM mScarletMre11-C49 without eGFPMer2): does not form condensates independently |
| COS(C)(=O)=O [MMS, methylmethanesulfonate] |  | resistant | as resistant to MMS or CPT as wild-type cells |  |
| CC[C@@]1(O)C(=O)OCc2c1cc1n(c2=O)Cc2cc3ccccc3nc2-1 [camptothecin] |  | resistant | as resistant to MMS or CPT as wild-type cells |  |
| ENDIIMVSTDE [wild-type SIM3 peptide] |  |  |  | backbone amide chemical shift perturbation of Smt3 [5]: induced strong backbone amide chemical shift to Smt3 residues I35, F36, F37, K38, I39 and R46 |
